Data as given in patent publication US20140343165A1, “PLANT PROTECTION AGENT” (priority 2010, published 2014).

How the values were obtained:
Erwinia amylovora [1] = test: In vitro infection tests on apple blossoms; conditions: for Infested blossoms: 14 blossoms
Description: In these tests, streptomycin was used as a positive control.
The in vitro tests on apple blossoms represented the natural course of infection and were conducted as follows: blooming apple blossoms were cut and further cultivated standing in a sterile sugar solution in transparent plastic containers. […] Following another 35 hours of incubation, the blossoms were wet by spraying on water. The infection rate was determined after 8 to 10 days of incubation at 22° C. and 70% relative humidity.

Erwinia amylovora [2] = test: Inoculation tests on pear fruits; format: in vivo
Source text: As opposed to the blossom system, this test has to be performed with lesions of the plant tissue. It is known that any results obtained with this system have a lower reproducibility and are harder to evaluate. The corresponding results are photographically documented in FIG. 3. Two different pear varieties were used.
The development of black necrotic lesions of the plant tissue and the formation of white bacterial slime (exsudate) were taken as criteria for evaluating the degree of infection.
Erwinia amylovora was inoculated into 5 ml KB medium and cultivated over night at 28° C. and 200 rpm. Upon reaching a cell density corresponding to OD600 (1:10 dilution)=0.17 to 0.20, 1 ml of the undiluted culture was centrifuged and the bacterial pellet was resuspended in PBS (phosphate buffered saline). Unripe pear fruits (July) obtained from the experimental plantation (Jedlersdorf, BOKU) were harvested, washed with water, dried and used for inoculation (EPPO protocol 2004). In the inoculation procedure, two holes each having a volume of about 10 μl were pierced into each fruit using a pipette tip. 10 μl of the test solution were pipetted into each of the hollows thus formed, followed by incubation of the fruits for 15 min. Upon absorption of the test solutions by the tissue, each lesion was inoculated with 10 μl of Erwinia amylovora, suspended in PBS. The direct inoculation of fruits that had not been treated with the agent before served as a positive control. In the negative control, sterile water was used instead of the agent solution. A 0.01 mM streptomycin solution was used as a positive control. The inoculated fruits were incubated for 3 to 7 days at 25° C. and 100% relative humidity.

[3] = tested on: pear blossoms (Williams Christ); test: Phytotoxicity on pear blossoms and subsequent fruit development; format: in vivo, Pyrus communis; conditions: for Browning reaction on petals: Williams Christ; for Fruit russeting: all tested concentrations
Description: (§1) . In this test, the respective concentrations were employed that had been proven as completely effective (no bacterial growth) in the in vitro suspension cultures. […]. […] The maximum final concentrations of the solvent ethanol in the treatment solutions were 5%; corresponding control treatments were conducted with 0.5 or 5% ethanol in water. For each variant (agent, concentration, variety), two of the larger branches were treated. The test were conducted in the experimental fruit plantation of the University of Agriculture in Jedlersdorf, Austria. The trees of each series were of identical age as well as developmental and observable physiological state. The treatments were conducted in the morning between 8:00 and 9:30 at a relative humidity of 68 to 75% and temperatures of 12 to 13° C. On all days of treatment, the sprayed blossoms were directly exposed to sunlight afterwards. Phytotoxic effects were evaluated on the days following treatment. During the following months, fruit set and development was observed and compared to that of the control plants. In the evaluation, attention was particularly focused on visible alterations of the fruit epidermis.

Erwinia amylovora [4] = test: Growth inhibition in in vitro suspension cultures (OD600 growth curves); format: cell-based; conditions: for Effect on growth of suspension culture: Example 2
Description: Streptomycin as a conventional agent against Erwinia amylovora was used as a positive control (see FIGS. 1A to 1D).
The specific members of the three different classes of quinones were uniformly pre-dissolved in ethanol to give a 1 mM solution and subsequently diluted to the respective final concentrations in culture medium. Corresponding controls were conducted with equal volumes of ethanol in the absence of agent (FIG. 4, “KE”). Attention was particularly focused on a low concentration rage of less than 100 μM, in which unspecific and weak antibacterial effects are no longer of significance.
In the present experiments, the Austrian Erwinia amylovora standard strain 295/93 (AGES) was employed.
(§2) Erwinia amylovora was inoculated into 5 ml of KB medium and cultivated over night at 28° C. and 200 rpm. This culture was diluted with KB medium to OD600=0.3 and 2 ml thereof were further cultivated in sealed cuvettes in the presence of different agent concentrations immediately afterwards. […] Two controls were conducted: unchanged medium and medium with an ethanol concentration equal to that of the test preparations. The optical densities of the cultures OD600 were measured over time at predetermined intervals.

[5] = tested on: apple blossoms (Smoothy and Idared); test: Phytotoxicity on apple blossoms and subsequent fruit development; format: in vivo, Malus x domestica; conditions: for Browning reaction on petals: Smoothy and Idared; for Fruit russeting: all tested concentrations
Description: as §1

Erwinia carotovora = test: Growth inhibition in suspension culture; format: cell-based
Description: Various other species of Erwinia are also important phytopathogens. The bacterium Erwinia carotovora was selected as an example of a further Erwinia species.
as §2

bees = conditions: on contact or by ingestion
Erwinia amylovora [6] = test: Bacteriostatic versus bactericidal effect: plating aliquots of suspension cultures onto agent-free solid medium; format: cell-based; conditions: for Colony formation of surviving cells after plating: already after 30 min
Description: This may be determined by means of plating aliquots of the suspension cultures containing the agent onto agent-free solid media. […] A culture blended with a corresponding volume of the solvent for juglone (ethanol) served as a control. […]. […] Aliquots of the suspension culture having an equivalent ethanol concentration were withdrawn and plated to serve as a control. After two days of incubating the plates at 25° C., the respective colony formation was documented.

[7] = concentration not given, curative

Structure (SMILES): O=C1C=CC(=O)C=C1 [Benzoquinone, 1,4-benzoquinone]
- phyotoxic (Erwinia amylovora [1]; 0.01 mM, apple blossoms): no
- Degree of efficacy (%) (Erwinia amylovora [1]; 0.01 mM, curative): 33%
- Infestation (%) (Erwinia amylovora [1]; 0.01 mM, curative): 57%
- Infested blossoms (Erwinia amylovora [1]; 0.01 mM, curative): 8
- phyotoxic (Erwinia amylovora [1]; 0.05 mM, apple blossoms): yes
- Degree of efficacy (%) (Erwinia amylovora [1]; 0.05 mM, curative): 42%
- Infestation (%) (Erwinia amylovora [1]; 0.05 mM, curative): 50%
- Infested blossoms (Erwinia amylovora [1]; 0.05 mM, curative): 7

Structure (SMILES): [H]/N=C(/N)N[C@H]1[C@H](O)[C@@H](O)[C@H](O[C@@H]2O[C@@H](C)[C@](O)(C=O)[C@H]2O[C@@H]2O[C@@H](CO)[C@H](O)[C@@H](O)[C@@H]2NC)[C@@H](N/C(N)=N\[H])[C@@H]1O [Streptomycin, streptomycin]
- Exsudate formation (Erwinia amylovora [2]; 0.01 mM): no exsudate formation
- Necrotic lesions (Erwinia amylovora [2]; 0.01 mM, Williams Christ and Bosc's Bottle Pear, versus inoculation without agent): slightly diminished
- Infested blossoms (Erwinia amylovora [1]; concentration not given, agent applied 2.5 h after Erwinia amylovora (curative)): 3
- Degree of efficacy (%) (Erwinia amylovora [1]; [7]): 75%
- Infestation (%) (Erwinia amylovora [1]; [7]): 21%
- phyotoxic (Erwinia amylovora [1]; in vivo): no

Structure (SMILES): CC1=CC(=O)c2c(O)cccc2C1=O [Plumbagin, 5-hydroxy-2-methyl-1,4-naphthoquinone]
- Browning reaction on petals ([3]; 0.1 mM): brown spots
- Browning reaction on petals ([3]; 0.5 mM, compared with 0.1 mM): more distinct
- Fruit russeting [3]: Neither the juglone nor the plumbagin treatments resulted in observable fruit russeting
- Concentrations proven completely effective (no bacterial growth) in the in vitro suspension cultures (Erwinia amylovora [4]; suspension culture): 0.1 to 0.5 mM
- Degree of efficacy (%) (Erwinia amylovora [1]; 0.1 mM, curative): 58%
- Infestation (%) (Erwinia amylovora [1]; 0.1 mM, curative): 36%
- Infested blossoms (Erwinia amylovora [1]; 0.1 mM, curative): 5
- Degree of efficacy (%) (Erwinia amylovora [1]; 0.5 mM, curative): 50%
- Infestation (%) (Erwinia amylovora [1]; 0.5 mM, curative): 43%
- Infested blossoms (Erwinia amylovora [1]; 0.5 mM, curative): 6
- Browning reaction on petals ([5]; 0.1 mM): brown spots
- Browning reaction on petals ([5]; 0.5 mM, compared with 0.1 mM): more distinct
- Fruit russeting [5]: Neither the juglone nor the plumbagin treatments resulted in observable fruit russeting

Structure (SMILES): O=C1C=CC(=O)c2c(O)cccc21 [Juglone]
- Browning reaction on petals ([3]; tested 0.005/0.01 mM): No effect
- Fruit russeting [3]: Neither the juglone nor the plumbagin treatments resulted in observable fruit russeting
- Growth in suspension culture (Erwinia carotovora; 0.1 mM): completely inhibited
- Growth in suspension culture (Erwinia carotovora; concentrations lower than 0.1 mM): not by lower concentrations
- Toxicity to bees (bees): non-toxic to bees on contact or by ingestion
- Effect on infection of pear fruits (Erwinia amylovora [2]; 0.1 mM, pre-incubation 15 min before inoculation): effect approximately comparable to that of 0.01 mM streptomycin
- Colony formation of surviving cells after plating (Erwinia amylovora [6]; 0.01 mM in suspension culture): no colony formation of surviving cells after each prolonged incubation time
- Colony formation of surviving cells after plating (Erwinia amylovora [6]; 0.1 mM in suspension culture): no colony formation of surviving cells after each prolonged incubation time
- Bactericidal effect (Erwinia amylovora [6]; conclusion of plating tests): strong bactericidal effect
- Effect on growth of suspension culture (Erwinia amylovora [4]; 5 μM): growth occurs after a prolonged incubation period
- Effect on growth of suspension culture (Erwinia amylovora [4]; 10 μM (1.74 mg/1)): completely bactericidal effect
- Effect on growth of suspension culture (Erwinia amylovora [4]; 50 μM, 5% ethanol in medium): distinct effect
- Concentrations proven completely effective (no bacterial growth) in the in vitro suspension cultures (Erwinia amylovora [4]; suspension culture): 0.005 to 0.05 mM
- Activity against Erwinia amylovora (growth inhibition) (Erwinia amylovora [4]; suspension culture, compared with streptomycin): activity corresponding to that of streptomycin in a sub-millimolar concentration range
- Degree of efficacy (%) (Erwinia amylovora [1]; 0.005 mM, curative): 58%
- Infestation (%) (Erwinia amylovora [1]; 0.005 mM, curative): 36%
- Infested blossoms (Erwinia amylovora [1]; 0.005 mM, curative): 5
- Degree of efficacy (%) (Erwinia amylovora [1]; 0.01 mM, curative): 67%
- Infestation (%) (Erwinia amylovora [1]; 0.01 mM, curative): 29%
- Infested blossoms (Erwinia amylovora [1]; 0.01 mM, curative): 4
- Browning reaction on petals ([5]; 0.025 mM): slightly brown spots
- Browning reaction on petals ([5]; 0.05 mM): more distinct spots
- Fruit russeting [5]: Neither the juglone nor the plumbagin treatments resulted in observable fruit russeting
